How the values were obtained:
[1] = Pharmacokinetic test in dog; format: in vivo, Beagle dogs; settings: for AUC(0-t) / Cmax / half-life / bioavailability / Vd/F: Beagle, plasma; for half-life: read-out: t½ (converted); for Vd/F: read-out: Vz/F
Experimental: (§1) The tested articles were given to Sprague-Dawley rats or Beagle dogs by intravenous and oral administration. Plasma samples were prepared from blood samples which were collected at various time points. The plasma concentrations of the tested articles were determined by specific LC-MS/MS analytical methods. Pharmacokinetic parameters were calculated with WinNonlin®. The pharmacokinetic test results for the example compounds are shown in Table 5 (rat) and Table 6 (dog) below.

[2] = Pharmacokinetic test in rat; format: in vivo, Sprague-Dawley rats; settings: for AUC(0-t) / Cmax / half-life / bioavailability / Vd/F: Sprague-Dawley, plasma; for half-life: read-out: t½ (converted); for Vd/F: read-out: Vz/F
Experimental: as §1

TMD-8 xenograft = test: In vivo efficacy study, TMD-8 xenograft model; settings: TMD-8 xenograft in NOD-SCID nude mice, given orally QD or BID for 14 consecutive days
Experimental: The in vivo antitumor activity was assessed with TMD-8 xenograft model. In brief, TMD-8 cells were implanted into NOD-SCID nude mice and allowed to grow to the designated size (c.a. 100-200 mm^3) before treatment. The tested articles were given orally at various dose levels once daily (QD) or twice a day (BID) for 14 consecutive days. Tumor and body weight were measured during the experiments, and tumor volumes were estimated from the formula [length/2]×[width^2]. Established tumors in each animal were individually normalized to their size at the start of the experiment, and the data were calculated as the change in tumor volume relative to the day 0 volume by the use of the relative tumor volume (RTV) formula, RTV=TVx/TV0, where TVx is the tumor volume on any day and TV0 is the tumor volume at the initiation of dosing.

Btk = Btk (Homo sapiens (Human), UniProt Q06187); test: Btk kinase assay (ADP-Glo); format: biochemical; settings: ATP 1.2 μM, 60 minutes, room temperature; read-out: BTK enzyme IC50
Summary of the method: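 Recombinant human Btk (2 ng/μl) with poly GT peptide (0.3 μM), ATP (1.2 μM), MnCl2 (1.4 mM) and DTT (40 nM), 60 min at room temperature (22±1° C.). ADP formed was read by ADP-Glo luminescence after ATP depletion. IC50 from log concentration versus percent inhibition relative to DMSO vehicle.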

Sequence of Btk (Q06187 whole entry): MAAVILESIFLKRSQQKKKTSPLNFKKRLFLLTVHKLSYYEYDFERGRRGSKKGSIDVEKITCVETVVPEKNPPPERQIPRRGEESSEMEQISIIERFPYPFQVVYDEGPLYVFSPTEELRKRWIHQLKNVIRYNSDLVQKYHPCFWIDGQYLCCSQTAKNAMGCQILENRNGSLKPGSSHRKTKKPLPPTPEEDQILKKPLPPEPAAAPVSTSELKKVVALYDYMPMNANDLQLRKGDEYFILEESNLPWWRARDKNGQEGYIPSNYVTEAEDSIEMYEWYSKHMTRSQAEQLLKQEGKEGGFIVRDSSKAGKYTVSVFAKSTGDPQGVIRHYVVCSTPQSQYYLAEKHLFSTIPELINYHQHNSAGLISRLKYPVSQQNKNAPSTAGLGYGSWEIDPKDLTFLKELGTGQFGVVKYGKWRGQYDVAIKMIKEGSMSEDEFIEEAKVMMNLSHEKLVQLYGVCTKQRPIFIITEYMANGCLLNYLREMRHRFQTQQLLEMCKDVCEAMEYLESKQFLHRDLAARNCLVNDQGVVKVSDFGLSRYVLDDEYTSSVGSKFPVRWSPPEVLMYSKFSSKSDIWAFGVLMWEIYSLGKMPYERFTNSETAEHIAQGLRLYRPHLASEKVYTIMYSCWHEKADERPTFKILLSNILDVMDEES

SMILES | AUC(0-t) ([1]; PO 2 mg/kg) [ng·h/mL] | Cmax ([1]; PO 2 mg/kg) [ng/mL] | bioavailability ([1]; PO 2 mg/kg) [%] | Vd/F ([1]; PO 2 mg/kg) [L/kg] | half-life ([1]; PO 2 mg/kg) [h] | CLz/F ([1]; PO 2 mg/kg) [mL/min/kg] | CLz/F ([2]; IV 0.5 mg/kg) [mL/min/kg] | Vz/F ([2]; IV 0.5 mg/kg) [L/kg] | CLz/F ([2]; PO 5 mg/kg) [mL/min/kg] | AUC(0-t) ([2]; IV 0.5 mg/kg) [ng·h/mL] | Cmax ([2]; IV 0.5 mg/kg) [ng/mL] | half-life ([2]; IV 0.5 mg/kg) [h] | AUC(0-t) ([2]; PO 5 mg/kg) [ng·h/mL] | Cmax ([2]; PO 5 mg/kg) [ng/mL] | bioavailability ([2]; PO 5 mg/kg) [%] | Vd/F ([2]; PO 5 mg/kg) [L/kg] | half-life ([2]; PO 5 mg/kg) [h] | tumor growth inhibition rate (TMD-8 xenograft) [%] | IC50 (Btk) [nM] | further results
C=CC(=O)N1CCC[C@@H](n2cc(-c3ccc(Oc4c(F)cccc4F)cc3)c3c(N)n[nH]c(=O)c32)C1 [Example 58, (R)-1-(1-acryloylpiperidin-3-yl)-4-amino-3-(4-(2,6-difluorophenoxy)phenyl)-1H-pyrrolo[2,3-d]pyridazin-7(6H)-one] | 1090 | 656 | 114 | 1.75 | 0.66 | 31.1 | 5.45 | 0.301 | 11.0 | 1510 | 1510 | 0.64 | 6840 | 1300 | 51.9 | 3.83 | 4.09 | 98 | ≤ 10 | AUC(0-t) ([1]; IV 0.2 mg/kg): 94.4 ng·h/mL; Cmax ([1]; IV 0.2 mg/kg): 145 ng/mL; half-life ([1]; IV 0.2 mg/kg): 0.43 h; CLz/F ([1]; IV 0.2 mg/kg): 35.4 mL/min/kg; Vz/F ([1]; IV 0.2 mg/kg): 1.281 L/kg
CC#CC(=O)N1CC[C@@H](n2cc(-c3ccc(Oc4c(F)cccc4F)cc3)c3c(N)n[nH]c(=O)c32)C1 [Example 93, (R)-4-amino-1-(1-(but-2-ynoyl)pyrrolidin-3-yl)-3-(4-(2,6-difluorophenoxy)phenyl)-1H-pyrrolo[2,3-d]pyridazin-7(6H)-one] | 1290 | 315 | 61.6 | 4.01 | 1.78 | 26.3 | 22.9 | 1.371 | 39.2 | 395 | 710 | 0.63 | 2290 | 914 | 58.1 | 15.4 | 4.62 | 80 | 10 to 1000 | AUC(0-t) ([1]; IV 0.5 mg/kg): 525 ng·h/mL; Cmax ([1]; IV 0.5 mg/kg): 212 ng/mL; half-life ([1]; IV 0.5 mg/kg): 1.5 h; CLz/F ([1]; IV 0.5 mg/kg): 15.9 mL/min/kg; Vz/F ([1]; IV 0.5 mg/kg): 2.05 L/kg

Reference: US9951077B2, “Aminopyridazinone compounds as protein kinase inhibitors” (ETERNITY BIOSCIENCE INC., priority 2014, dated 2018)
